Experimental data: patent publication US20240246913A1, “2-CARBOXYL-INDOLE INHIBITORS OF METALLO-BETA-LACTAMASES” (Oxford University Innovation Limited, priority 2021, published 2024)

Assays:
[1] = target: IMP-1 (Serratia marcescens, UniProt P52699); assay: MBL inhibition, FC-5 fluorescence assay, IMP-1; assay type: biochemical; conditions: FC-5 cephalosporin substrate, fluorescence; ranges of obtained pIC50; read-out: pIC50 IMP-1 (converted)
How it was run: (§1)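 Enzyme activity was followed as the initial rate of fluorescence increase (λex 380, λem 460 nm) as FC-5 was cleaved and released its fluorophore. Values come from variable-slope fits of normalized response against log inhibitor concentration.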

[2] = system: Escherichia coli NDM-7; assay: Antibiotic susceptibility testing (MIC), EC NDM-7; assay type: cell-based; conditions: agar or broth dilution (CLSI/EUCAST)
Method: (§2) Antibiotic susceptibility testing was performed using the agar or broth dilution method, in line with the Clinical and Laboratory Standards Institute (CLSI) and European Committee on Antimicrobial Susceptibility Testing (EUCAST) requirements.

[3] = Plasma protein binding, equilibrium dialysis, human plasma; assay type: in vitro ADME; conditions: pH 7.4, equilibrium dialysis (RED) 4 hours at 37° C., read-out: Plasma protein binding, fu, Human
How it was run: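 Compound at 10 μM in plasma dialysed against 67 mM phosphate buffer pH 7.4 for 4 h at 37° C. in RED device; unbound fraction from buffer and plasma levels by LC-MS/MS. Plasma stability checked in parallel over 4 h at 37° C. versus frozen control.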

[4] = Metabolic stability in human hepatocytes; assay type: in vitro ADME; conditions: cryopreserved human hepatocytes, 1 μM compound, 37° C., up to 90 min, read-out: Metabolic stability in hepatocytes, in vitro t1/2, Human
Method: (§3) Metabolic stability assays were performed in cryopreserved human and mouse hepatocytes. The hepatocytes were thawed and added to “Thawing media”, and centrifuged to pellet the hepatocytes. The cell pellet was taken up in Williams medium E (Invitrogen A1217601), the number of cells was calculated and adjusted to 1.0×10^6 cells/mi. The incubation was carried out on a heater-shaker at […], in a 24-well Picoplate (round bottom, PerkinElmer), using an incubation volume of […]. Thus, to obtain a final compound concentration of 1 μM, 0.7 μl of the 1 mM compound stock solution was pipetted to the wells of the plate. Reaction was initiated by adding 700 μl of cell suspension. Samples were incubated at 37° C. for […] and a zero sample was taken, i.e. 100 μl sample was removed to a 96-well plate and the reaction was quenched by adding 100 μl of 100% MeCN containing 50 nM Warfarin as an internal control. Consecutive samples were taken at time-points 5 min, 15 min, 30 min, 60 min, and 90 min. After finishing the experiment, samples were centrifuged at 3000 rpm for 15 min and before analysis by LC-MS/MS (Waters Corp, Milford, MA, USA).

[5] = target: NDM-1 (Klebsiella pneumoniae, UniProt C7C422); assay: MBL inhibition, FC-5 fluorescence assay, NDM-1; assay type: biochemical; conditions: FC-5 cephalosporin substrate, fluorescence; ranges of obtained pIC50; read-out: pIC50 NDM-1 (converted)
Sequence of NDM-1 (C7C422 29-270, looked up, species assumed): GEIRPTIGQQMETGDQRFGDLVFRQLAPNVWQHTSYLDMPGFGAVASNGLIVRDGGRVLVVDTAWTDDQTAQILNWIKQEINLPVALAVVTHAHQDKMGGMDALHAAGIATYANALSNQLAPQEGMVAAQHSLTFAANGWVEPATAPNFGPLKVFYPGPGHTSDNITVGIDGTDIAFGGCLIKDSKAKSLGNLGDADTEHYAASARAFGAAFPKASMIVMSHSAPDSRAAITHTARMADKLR
How it was run: as §1

[6] = system: Escherichia coli NDM-1; assay: Antibiotic susceptibility testing (MIC), EC NDM-1; assay type: cell-based; conditions: agar or broth dilution (CLSI/EUCAST)
Method: as §2

[7] = Metabolic stability in mouse hepatocytes; assay type: in vitro ADME; conditions: cryopreserved mouse hepatocytes, 1 μM compound, 37° C., up to 90 min, read-out: Metabolic stability in hepatocytes, in vitro t1/2, Mouse
Method: as §3

[8] = Plasma protein binding, equilibrium dialysis, mouse plasma; assay type: in vitro ADME; conditions: pH 7.4, equilibrium dialysis (RED) 4 hours at 37° C., read-out: Plasma protein binding, fu, Mouse
Method: The fraction of unbound compound (fu) in plasma from human or other animal species was determined by equilibrium dialysis at 37° C. for 4 hours using the Rapid Equilibrium Dialysis (RED) device (ThermoFisher Scientific). The test compound at a concentration of 10 μM was added to plasma and dialyzed against isotonic phosphate buffer (67 mM, pH 7.4) over 4 hours at 37° C. After dialysis, compound concentrations in buffer and plasma were quantified by LC-MS/MS. In parallel the stability of the compound in plasma was determined by incubating drug-spiked plasma (10 μM) at 37° C. for 4 hours, meanwhile the control plasma sample was kept in the freezer. The concentration of the compound in both samples was quantified by LC-MS/MS (Waters Corp, Milford, MA, USA).

[9] = system: Acinetobacter baumannii NDM-1; assay: Antibiotic susceptibility testing (MIC), AB NDM-1; assay type: cell-based; conditions: agar or broth dilution (CLSI/EUCAST)
Method: as §2

[10] = target: VIM-1 (Pseudomonas aeruginosa, UniProt A0A0F7KYQ8); assay: MBL inhibition, FC-5 fluorescence assay, VIM-1; assay type: biochemical; conditions: FC-5 cephalosporin substrate, ranges of obtained pIC50, read-out: pIC50 VIM-1 (converted)
How it was run: as §1

[11] = target: VIM-2 (Escherichia coli, UniProt Q5U7L7); assay: MBL inhibition, FC-5 fluorescence assay, VIM-2; assay type: biochemical; conditions: FC-5 cephalosporin substrate, ranges of obtained pIC50, read-out: pIC50 VIM-2 (converted)
How it was run: as §1

Sequence of IMP-1 (P52699 19-246, looked up, species assumed): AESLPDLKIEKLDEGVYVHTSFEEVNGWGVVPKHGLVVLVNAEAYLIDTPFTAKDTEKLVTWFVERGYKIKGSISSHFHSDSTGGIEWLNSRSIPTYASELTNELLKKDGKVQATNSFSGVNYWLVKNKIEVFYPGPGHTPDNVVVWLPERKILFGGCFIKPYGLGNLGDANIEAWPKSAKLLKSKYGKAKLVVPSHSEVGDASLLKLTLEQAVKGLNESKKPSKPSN

| SMILES | IC50 [1] [nM] | MIC values EC NDM-7 [2] | fraction unbound at 4 h, 10 μM [3] | half-life at 1 μM [4] [h] | IC50 [5] [nM] | MIC values EC NDM-1 [6] | half-life at 1 μM [7] [h] | fraction unbound at 4 h, 10 μM [8] | MIC values AB NDM-1 [9] | IC50 [10] [nM] | IC50 [11] [nM] |
| --- | --- | --- | --- | --- | --- | --- | --- | --- | --- | --- | --- |
| C[C@@H](c1cccc2c(-c3ccc(NS(C)(=O)=O)c(C#N)c3)c(C(=O)O)[nH]c12)N1C[C@]2(C[C@@H](CN)C2)OC1=O [IC-16, 7-((1S)-1-(2-(aminomethyl)-6-oxo-5-oxa-7-azaspiro[3.4]octan-7-yl)ethyl)-3-(3-cyano-4-(methylsulfonamido)phenyl)-1H-indole-2-carboxylic acid] | > 10 | A (A = MIC values ≤ 1) | 0.05 to 0.25 | > 6.67 | < 0.1 | A (A = MIC values ≤ 1) | > 6.67 | 0.05 to 0.25 | B (B MIC values 2 ÷ 8) | 1 to 10 | 0.1 to 1 |
| CC(c1noc(CCCN)n1)c1cccc2c(-c3ccc(CS(C)(=O)=O)c(F)c3)c(C(=O)O)[nH]c12 (centres unmarked) [IC-62, 7-[1-[5-(3-Aminopropyl)-1,2,4-oxadiazol-3-yl]ethyl]-3-[3-fluoro-4-(methylsulfonylmethyl)phenyl]-1H-indole-2-carboxylic acid] | 1 to 10 | A (A = MIC values ≤ 1) | 0.05 to 0.25 | > 6.67 | < 0.1 | A (A = MIC values ≤ 1) | 2.5 to 6.67 | 0.005 to 0.05 | A (A = MIC values ≤ 1) | 0.1 to 1 | 0.1 to 1 |
| C[C@@H](c1cccc2c(-c3ccc(CS(C)(=O)=O)c(F)c3)c(C(=O)O)[nH]c12)N1CC2(CCC(N)CC2)OC1=O (stereo partly drawn) [IC-71, (S)-7-(1-(8-amino-2-oxo-1-oxa-3-azaspiro[4.5]decan-3-yl)ethyl)-3-(3-fluoro-4-((methylsulfonyl)methyl)phenyl)-1H-indole-2-carboxylic acid] | > 10 | A (A = MIC values ≤ 1) | > 0.25 | > 6.67 | 1 to 10 | B (B MIC values 2 ÷ 8) | 2.5 to 6.67 | > 0.25 | C (C = MIC values > 8) | > 10 | 1 to 10 |
| C[C@@H](c1cccc2c(-c3ccc(CS(C)(=O)=O)c(F)c3)c(C(=O)O)[nH]c12)n1cc(CCC2(N)CC2)oc1=O [IC-69, (S)-7-(1-(5-(2-(1-Aminocyclopropyl)ethyl)-2-oxooxazol-3(2H)-yl)ethyl)-3-(3-fluoro-4-((methylsulfonyl)methyl)phenyl)-1H-indole-2-carboxylic acid] | > 10 | A (A = MIC values ≤ 1) | 0.05 to 0.25 | > 6.67 | < 0.1 | A (A = MIC values ≤ 1) | < 2.5 | 0.005 to 0.05 | B (B MIC values 2 ÷ 8) | 0.1 to 1 | 0.1 to 1 |
| C[C@@H](c1cccc2c(-c3ccc(CS(C)(=O)=O)c(F)c3)c(C(=O)O)[nH]c12)n1cc(CN2CC(N)C2)oc1=O [IC-67, (S)-7-(1-(5-((3-aminoazetidin-1-yl)methyl)-2-oxooxazol-3(2H)-yl)ethyl)-3-(3-fluoro-4-((methylsulfonyl)methyl)phenyl)-1H-indole-2-carboxylic acid] | > 10 | A (A = MIC values ≤ 1) | 0.05 to 0.25 | > 6.67 | < 0.1 | A (A = MIC values ≤ 1) | > 6.67 | 0.005 to 0.05 | B (B MIC values 2 ÷ 8) | 1 to 10 | 0.1 to 1 |
| CC(c1cccc2c(-c3ccc(CS(C)(=O)=O)c(F)c3)c(C(=O)O)[nH]c12)n1cc(CNC(=O)CN)oc1=O (centres unmarked) [IC-80, 7-(1-(5-((2-Aminoacetamido)methyl)-2-oxooxazol-3(2H)-yl)ethyl)-3-(3-fluoro-4-((methylsulfonyl)methyl)phenyl)-1H-indole-2-carboxylic acid] | > 10 | A (A = MIC values ≤ 1) | > 0.25 | > 6.67 | 0.1 to 1 | A (A = MIC values ≤ 1) | < 2.5 | 0.05 to 0.25 | B (B MIC values 2 ÷ 8) | 1 to 10 | 1 to 10 |
| C[C@@H](c1cccc2c(-c3ccc(CS(C)(=O)=O)c(F)c3)c(C(=O)O)[nH]c12)n1cc(CCCN)oc1=O [IC-70, (S)-7-(1-(5-(3-aminopropyl)-2-oxooxazol-3(2H)-yl)ethyl)-3-(3-fluoro-4-((methylsulfonyl)methyl)phenyl)-1H-indole-2-carboxylic acid] | > 10 | A (A = MIC values ≤ 1) | 0.05 to 0.25 | > 6.67 | < 0.1 | A (A = MIC values ≤ 1) | 2.5 to 6.67 | 0.005 to 0.05 | A (A = MIC values ≤ 1) | 0.1 to 1 | 0.1 to 1 |
| CC(OCc1ccc(CN)cc1)c1cccc2c(-c3ccc(NS(C)(=O)=O)c(C#N)c3)c(C(=O)O)[nH]c12 (centres unmarked) [IC-86, 7-(1-((4-(Aminomethyl)benzyl)oxy)ethyl)-3-(3-cyano-4-(methylsulfonamido)phenyl)-1H-indole-2-carboxylic acid] | > 10 | – | 0.005 to 0.05 | > 6.67 | < 0.1 | – | < 2.5 | 0.05 to 0.25 | – | > 10 | 1 to 10 |
| C[C@@H](c1cccc2c(-c3ccc(CS(C)(=O)=O)c(F)c3)c(C(=O)O)[nH]c12)N1CC2(CN(C(=N)N)C2)OC1=O [IC-66, (S)-7-(1-(2-carbamimidoyl-6-oxo-5-oxa-2,7-diazaspiro[3.4]octan-7-yl)ethyl)-3-(3-fluoro-4-((methylsulfonyl)methyl)phenyl)-1H-indole-2-carboxylic acid] | > 10 | A (A = MIC values ≤ 1) | > 0.25 | 2.5 to 6.67 | 0.1 to 1 | A (A = MIC values ≤ 1) | > 6.67 | 0.005 to 0.05 | B (B MIC values 2 ÷ 8) | 0.1 to 1 | 0.1 to 1 |
| CC(OCC1CCNCC1)c1cccc2c(-c3ccc(CS(C)(=O)=O)c(F)c3)c(C(=O)O)[nH]c12 (centres unmarked) [IC-89, 3-(3-Fluoro-4-((methylsulfonyl)methyl)phenyl)-7-(1-(piperidin-4-ylmethoxy)ethyl)-1H-indole-2-carboxylic acid] | > 10 | – | 0.05 to 0.25 | > 6.67 | 0.1 to 1 | – | > 6.67 | 0.05 to 0.25 | – | 1 to 10 | 1 to 10 |
